For data set [1], the system named is Klebsiella pneumoniae ATCC 35657. Briefly: MIC, wild-type K. pneumoniae. As to conditions: K. pneumoniae ATCC 35657. Format: cell-based.
Data set [2] deals with Acinetobacter baumannii ATCC BAA-747. Briefly: MIC, wild-type A. baumannii. Format: cell-based. The conditions noted are these: A. baumannii ATCC BAA-747.
Data set [3] concerns A. baumannii MMX2240. Briefly: MIC, fluoroquinolone resistant A. baumannii. The format is cell-based, Acinetobacter baumannii.
Data set [4] deals with E. coli ATCC 25922. The data set can be described thus: MIC, wild-type E. coli ATCC 25922. The format is cell-based, Escherichia coli. The conditions noted are these: for MIC E. coli^WT: E. coli ATCC 25922; for increase in MIC values against the wild-type E. coli strain compared to the permeable strain: E. coli^WT vs E. coli^P; for MIC: Escherichia coli, ATCC25922, read-out: MIC E. coli^WT, E. coli ATCC 25922.

The subject of data set [5] is E. coli SKM18. Briefly: microbe, parasite or virus in culture. Format: cell-based, Escherichia coli. The conditions noted are these: for MIC E. coli^R1: E. coli SKM18.
In data set [6] the test system is E. coli^WT (ATCC 25922). More on the design: method as in PMID 29032026. The conditions noted are these: cited from earlier work.
In data set [7] the test system is panel of 12 E. coli isolates. More on the design: method as in PMID 29032026. As to conditions: abbreviated panel of E. coli strains; cited from earlier work.
For data set [8], the system named is A. baumannii^WT. The data set can be described thus: Time-kill kinetics, A. baumannii.
The test system of data set [9] is E. coli^WT. The data set can be described thus: Time-kill kinetics, E. coli.
For data set [10], the target named is E. coli DNA gyrase (Escherichia coli, UniProt P0AES4+P0AES6). Briefly: biochemical.
The target in data set [11] is human topoisomerase II (Homo sapiens, UniProt P11388). Briefly: Human topoisomerase II decatenation assay. Format: biochemical. As to conditions: Supplemental Table 1; read-out: Human Topo II IC50.
A short description of data set [12]: Pharmacokinetics in CD-1 mice. As to conditions: CD-1, mouse, plasma, iv, 10 mg/kg.
Data set [13] relates to E. coli^WT (ATCC 25922). The data set can be described thus: Mouse septicemia model. As to conditions: Mus musculus, iv, 96 h, read-out: survival. Format: in vivo, CD-1 mice.
In data set [14] the test system is panel of 12 A. baumannii isolates. Briefly: Susceptibility testing, 12 A. baumannii isolates. The format is cell-based, Acinetobacter baumannii.
The subject of data set [15] is panel of 12 E. coli isolates. Briefly: Susceptibility testing, 12 E. coli isolates. Format: cell-based, Escherichia coli.
[16] abbreviates: E. coli enzymatic activity, DNA gyrase IC50.

Values after ≈ are worked out from the molar mass of the structure shown. Structures can show the parent of a compound that is named as a salt.

Data on 19 molecules can be found in paper PMC5991783, “Discovery and Optimization of Indolyl-Containing 4-Hydroxy-2-Pyridone Type II DNA Topoisomerase Inhibitors Active against Multidrug Resistant Gram-negative Bacteria” (Journal of Medicinal Chemistry, 2018).

For orientation: IC50 means the concentration that inhibits the measured activity by half. The term AUC(0-t) denotes exposure summed from dosing to a finite time, without extrapolation to infinity. Usually clearance stands for the volume of plasma or blood freed of the substance per unit of time. The MIC90 is the lowest concentration that inhibits either 90% of growth or 90% of the strains tested, depending on the study.

Chain of human topoisomerase II (P11388 whole entry): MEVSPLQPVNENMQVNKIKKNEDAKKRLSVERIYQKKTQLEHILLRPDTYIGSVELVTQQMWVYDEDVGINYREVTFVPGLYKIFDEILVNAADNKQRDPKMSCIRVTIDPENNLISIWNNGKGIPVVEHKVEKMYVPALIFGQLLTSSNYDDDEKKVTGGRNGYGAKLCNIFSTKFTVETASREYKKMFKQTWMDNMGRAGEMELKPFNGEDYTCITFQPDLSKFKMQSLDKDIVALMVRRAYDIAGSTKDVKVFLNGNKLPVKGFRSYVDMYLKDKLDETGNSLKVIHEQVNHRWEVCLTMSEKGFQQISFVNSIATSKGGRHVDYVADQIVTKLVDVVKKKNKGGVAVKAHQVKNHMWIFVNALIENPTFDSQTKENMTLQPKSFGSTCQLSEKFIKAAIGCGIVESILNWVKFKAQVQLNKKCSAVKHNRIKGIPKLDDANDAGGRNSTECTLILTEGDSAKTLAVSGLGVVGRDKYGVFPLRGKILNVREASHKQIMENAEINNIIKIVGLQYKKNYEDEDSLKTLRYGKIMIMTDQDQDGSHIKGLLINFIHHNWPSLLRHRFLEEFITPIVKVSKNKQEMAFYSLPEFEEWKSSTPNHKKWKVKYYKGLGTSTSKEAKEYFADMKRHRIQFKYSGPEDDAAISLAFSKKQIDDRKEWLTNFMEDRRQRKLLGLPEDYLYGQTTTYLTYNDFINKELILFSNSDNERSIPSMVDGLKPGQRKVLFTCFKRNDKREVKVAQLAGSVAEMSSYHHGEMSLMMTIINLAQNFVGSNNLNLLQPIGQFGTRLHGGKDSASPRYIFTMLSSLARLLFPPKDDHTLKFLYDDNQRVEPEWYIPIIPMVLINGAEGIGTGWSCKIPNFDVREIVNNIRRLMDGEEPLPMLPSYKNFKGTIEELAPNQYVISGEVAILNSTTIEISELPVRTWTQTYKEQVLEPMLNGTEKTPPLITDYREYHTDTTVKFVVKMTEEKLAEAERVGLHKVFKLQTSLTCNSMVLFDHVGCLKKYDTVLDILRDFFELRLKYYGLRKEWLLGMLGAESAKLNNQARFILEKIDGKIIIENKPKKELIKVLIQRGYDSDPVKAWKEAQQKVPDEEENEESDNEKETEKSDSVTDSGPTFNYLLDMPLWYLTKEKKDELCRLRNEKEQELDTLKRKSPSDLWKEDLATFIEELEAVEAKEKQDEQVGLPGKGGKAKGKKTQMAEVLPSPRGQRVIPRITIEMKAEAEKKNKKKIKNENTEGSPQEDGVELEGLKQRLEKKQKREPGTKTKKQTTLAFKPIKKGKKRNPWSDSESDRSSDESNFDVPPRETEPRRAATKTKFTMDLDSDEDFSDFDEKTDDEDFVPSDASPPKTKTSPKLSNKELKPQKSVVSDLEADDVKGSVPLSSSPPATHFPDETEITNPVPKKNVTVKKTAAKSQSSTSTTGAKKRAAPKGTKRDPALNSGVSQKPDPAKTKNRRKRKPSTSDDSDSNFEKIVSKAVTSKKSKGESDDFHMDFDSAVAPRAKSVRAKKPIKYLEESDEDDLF
Chain of E. coli DNA gyrase (P0AES4 whole entry, one chain of several): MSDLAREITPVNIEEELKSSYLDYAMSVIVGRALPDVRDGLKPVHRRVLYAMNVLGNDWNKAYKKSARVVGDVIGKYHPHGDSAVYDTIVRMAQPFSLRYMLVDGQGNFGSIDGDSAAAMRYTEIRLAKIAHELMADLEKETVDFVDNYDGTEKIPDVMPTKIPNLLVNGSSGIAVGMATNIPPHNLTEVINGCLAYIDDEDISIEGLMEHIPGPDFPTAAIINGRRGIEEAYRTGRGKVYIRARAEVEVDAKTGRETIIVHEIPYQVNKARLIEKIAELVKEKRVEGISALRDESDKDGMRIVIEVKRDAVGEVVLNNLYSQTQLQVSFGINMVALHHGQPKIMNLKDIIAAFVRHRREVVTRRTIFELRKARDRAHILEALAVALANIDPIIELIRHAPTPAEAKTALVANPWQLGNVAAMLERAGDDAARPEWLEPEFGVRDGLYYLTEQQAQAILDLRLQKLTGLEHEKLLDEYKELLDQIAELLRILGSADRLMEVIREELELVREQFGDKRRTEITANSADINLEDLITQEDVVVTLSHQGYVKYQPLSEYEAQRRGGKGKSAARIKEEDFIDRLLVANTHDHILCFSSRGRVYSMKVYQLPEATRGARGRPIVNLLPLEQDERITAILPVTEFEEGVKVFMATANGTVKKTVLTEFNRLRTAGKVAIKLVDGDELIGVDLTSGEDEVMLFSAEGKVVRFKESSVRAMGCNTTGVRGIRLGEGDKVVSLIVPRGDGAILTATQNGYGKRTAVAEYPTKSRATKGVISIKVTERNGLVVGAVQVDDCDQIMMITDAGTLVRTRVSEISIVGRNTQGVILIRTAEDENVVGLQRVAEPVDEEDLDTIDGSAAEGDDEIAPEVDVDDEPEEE

Take “10-((sec-Butylamino)methyl)-4-hydroxy-9-methyl-2-oxo-1,2,5,6,7,9-hexahydropyrido[3′,2′:6,7]cyclohepta[1,2-f]indole-3-carboxylic Acid Hydrochloride [Compound 6n]”: in [1], the “MIC K. pneu^WT” value stood at 0.50 µg/mL. The “MIC A. bau^WT” value in data set [2] stood at 0.78 µg/mL. For the same molecule, the “MIC A. bau^R” value in data set [3] was 0.50 µg/mL. In addition, the “MIC E. coli^WT” value in [4] worked out at 0.78 µg/mL. Further, in data set [5], the “MIC E. coli^R1” value stood at 0.78 µg/mL.
Turning to `CCc1c(-c2ccc(N3C[C@@H]4[C@@H](N)[C@@H]4C3)cc2)[nH]c(=O)c(C(=O)O)c1O` [Compound 1b], in [6], the “efficacy in a murine septicemia model” value was “demonstrated efficacy”. In addition, the “MIC90 E. coli” value in [7] is 8 µg/mL (≈ 22.5 µM).
In the case of `CCc1c(-c2ccc3c(ccn3C)c2)[nH]c(=O)c(C(=O)O)c1O` [Compound 2a, 5-Ethyl-4-hydroxy-6-(1-methyl-1H-indol-5-yl)-2-oxo-1,2-dihydropyridine-3-carboxylic Acid], the “increase in MIC values against the wild-type E. coli strain compared to the permeable strain” value in data set [4] is “greater than 25 fold”.
Still for that read-out and setting: the entry for `CCc1c(-c2ccc3c(c2)cc(C)n3C)[nH]c(=O)c(C(=O)O)c1O` [Compound 2b, 6-(1,2-Dimethyl-1H-indol-5-yl)-5-ethyl-4-hydroxy-2-oxo-1,2-dihydropyridine-3-carboxylic Acid] is “greater than 25 fold”.
As to `CCc1c(-c2ccc3c(c2)cc(CN2CCC2)n3C)[nH]c(=O)c(C(=O)O)c1O` [Compound 2m, 6-(2-(Azetidin-1-ylmethyl)-1-methyl-1H-indol-5-yl)-5-ethyl-4-hydroxy-2-oxo-1,2-dihydropyridine-3-carboxylic Acid Hydrochloride], the “mode of bacterial inhibition (time–kill kinetics)” value is “concentration-dependent bactericidal activity” in [8] (A. baumannii^WT, several concentrations) and “concentration-dependent bactericidal activity” in data set [9] (E. coli^WT, several concentrations). Further, the “reduction in the number of CFUs” value is on record as ~2 log10 units in data set [8] (above 2-fold of the MIC, within ∼2 h) and “more than 3 log10 units” in [9] (concentrations above the MIC, within ∼2 h).
Regarding `CNCc1cc2cc3c(cc2n1C)CCc1c-3[nH]c(=O)c(C(=O)O)c1O.Cl` [Compound 5a], the MIC in data set [4] is 7.8 µg/mL; in data set [5] (Escherichia coli, SKM18, read-out: MIC E. coli^R1, E. coli SKM18) it was 7.8 µg/mL. In addition, in data set [10] (setting [16]), half-maximal inhibition (IC50) was put at 900 nM.
Take `CCNCc1cc2cc3c(cc2n1C)CCCc1c-3[nH]c(=O)c(C(=O)O)c1O` [Compound 6a, 10-((Ethylamino)methyl)-4-hydroxy-9-methyl-2-oxo-1,2,5,6,7,9-hexahydropyrido[3′,2′:6,7]cyclohepta[1,2-f]indole-3-carboxylic Acid Hydrochloride]: the IC50 was > 100000 nM in data set [11]; 560 nM in data set [10] (E. coli DNA gyrase IC50, gyrase^WT); 100 nM in [10] (setting [16]).
In the case of `CCNCc1cc2cc3c(cc2n1C)NCCc1c-3[nH]c(=O)c(C(=O)O)c1O` [Compound 6g], the MIC in data set [4] lay within 7.8 to 31.3 µg/mL (≈ 20.4 to 81.8 µM).
In the case of `CC(C)NCc1cc2cc3c(cc2n1C)CCCc1c-3[nH]c(=O)c(C(=O)O)c1O` [Compound 6i, 4-Hydroxy-10-((isopropylamino)methyl)-9-methyl-2-oxo-1,2,5,6,7,9-hexahydropyrido[3′,2′:6,7]cyclohepta[1,2-f]indole-3-carboxylic Acid Hydrochloride], the IC50 in data set [11] is > 100000 nM. In [12] (pH 8), this molecule returned an AUC(0-t) at 24 h of 1810 ng·h/mL and a clearance of 64 mL/min/kg. In addition, the IC50 in [10] (E. coli DNA gyrase IC50) came to 2700 nM.
Consider `CC(C)NCc1cc2cc3c(cc2n1C)NCCc1c-3[nH]c(=O)c(C(=O)O)c1O` [Compound 6l], for which, in [4], the MIC lay in the range of 7.8 to 31.3 µg/mL (≈ 19.7 to 79 µM).
In data set [12] (pH 4), `Cn1c(CNC2(C)CCC2)cc2cc3c(cc21)CCCc1c-3[nH]c(=O)c(C(=O)O)c1O` [Compound 6p, 4-Hydroxy-9-methyl-10-(((1-methylcyclobutyl)amino)methyl)-2-oxo-1,2,5,6,7,9-hexahydropyrido[3′,2′:6,7]cyclohepta[1,2-f]indole-3-carboxylic Acid Hydrochloride] returned an exposure AUC(0-t) at 24 h of 4580 ng·h/mL and a clearance of 35 mL/min/kg. Also, in [13], the responders at 20 mg/kg amounted to 0%.
`Cn1c(CNC2(C)CCC2)cc2cc3c(cc21)OCCc1c-3[nH]c(=O)c(C(=O)O)c1O` [Compound 6q, 4-Hydroxy-9-methyl-10-(((1-methylcyclobutyl)amino)methyl)-2-oxo-2,5,6,9-tetrahydro-1H-pyrido[2′,3′:4,5]oxepino[3,2-f]indole-3-carboxylic Acid Hydrochloride]: the IC50 in data set [11] is > 100000 nM. For the same molecule, the MIC in [14] (Acinetobacter baumannii, read-out: A. baumannii MIC range) lay in the range of 0.06 to 16 µg/mL. Further, in [12] (pH 8), the AUC(0-t) at 24 h came to 4420 ng·h/mL and the clearance was 37 mL/min/kg. Besides, in data set [10] (E. coli DNA gyrase IC50), 730 nM corresponded to half-maximal inhibition (IC50).
For the molecule `CN(C)Cc1cc2cc3c(cc2n1C)CCCc1c-3[nH]c(=O)c(C(=O)O)c1O` [Compound 6r, 10-((Dimethylamino)methyl)-4-hydroxy-9-methyl-2-oxo-1,2,5,6,7,9-hexahydropyrido[3′,2′:6,7]cyclohepta[1,2-f]indole-3-carboxylic Acid Hydrochloride], the IC50 in data set [11] is > 100000 nM. In addition, in [12] (pH 8), the AUC(0-t) at 24 h came out at 3520 ng·h/mL and the clearance was determined as 47 mL/min/kg. The IC50 in data set [10] (E. coli DNA gyrase IC50) was found to be 410 nM. In addition, in [13], the responders at 20 mg/kg was found to be 100%.
As to `CN(C)Cc1cc2cc3c(cc2n1C)OCCc1c-3[nH]c(=O)c(C(=O)O)c1O` [Compound 6s, 10-((Dimethylamino)methyl)-4-hydroxy-9-methyl-2-oxo-2,5,6,9-tetrahydro-1H-pyrido[2′,3′:4,5]oxepino[3,2-f]indole-3-carboxylic Acid Hydrochloride], the values for the IC50 in data set [11] and in data set [10] (E. coli DNA gyrase IC50) were > 100000 nM and 490 nM, respectively. Besides, in [12] (pH 4), the AUC(0-t) at 24 h was determined as 2930 ng·h/mL. In addition, in [12] (pH 4), the clearance came out at 53 mL/min/kg. For the same molecule, the responders at 20 mg/kg in data set [13] amounted to 100%.
In the case of `Cn1c(CN2CCCC2)cc2cc3c(cc21)CCCc1c-3[nH]c(=O)c(C(=O)O)c1O` [Compound 6v, 4-Hydroxy-9-methyl-2-oxo-10-(pyrrolidin-1-ylmethyl)-1,2,5,6,7,9-hexahydropyrido[3′,2′:6,7]cyclohepta[1,2-f]indole-3-carboxylic Acid Hydrochloride], the “E. coli MIC90” value in data set [15] (12 strains, Mueller Hinton II broth) is 1 µg/mL. The MIC90 lay in the range of 0.5 to 1 µg/mL in [15] (Escherichia coli, read-out: E. coli MIC90, 12 strains, Mueller Hinton II broth) and 8 to 16 µg/mL in data set [14] (Acinetobacter baumannii, read-out: A. baumannii MIC90, 12 strains, Mueller Hinton II broth). Besides, the values for the IC50 in [11] and in data set [10] (E. coli DNA gyrase IC50) were > 100000 nM and 210 nM, respectively. The AUC(0-t) at 24 h in [12] (pH 8) is 4050 ng·h/mL. In data set [12] (pH 8), the clearance is 41 mL/min/kg. Moreover, the responders at 20 mg/kg in data set [13] stood at 100%.
As to `Cn1c(CN2CCCC2)cc2cc3c(cc21)OCCc1c-3[nH]c(=O)c(C(=O)O)c1O` [Compound 6w, 4-Hydroxy-9-methyl-2-oxo-10-(pyrrolidin-1-ylmethyl)-2,5,6,9-tetrahydro-1H-pyrido[2′,3′:4,5]oxepino[3,2-f]indole-3-carboxylic Acid Hydrochloride], the figures for the IC50 in data set [11] and in [10] (E. coli DNA gyrase IC50) were > 100000 nM and 280 nM, respectively.
As for `CO/N=C(\C(=O)N[C@@H]1C(=O)N2C(C(=O)[O-])=C(C[N+]3(C)CCCC3)CS[C@H]12)c1csc(N)n1` [cefepime, reference compound], the “MIC K. pneu^WT” value in data set [1] was determined as 0.02 µg/mL (≈ 0.0416 µM). In addition, the “MIC A. bau^WT” value in [2] stood at 0.78 µg/mL (≈ 1.62 µM). For the same molecule, in [3], the “MIC A. bau^R” value came out at 0.78 µg/mL (≈ 1.62 µM). Further, the “MIC E. coli^WT” value in data set [4] came to 0.05 µg/mL (≈ 0.104 µM). In [5], the “MIC E. coli^R1” value is 0.05 µg/mL (≈ 0.104 µM).
With `C[C@H]1COc2c(N3CCN(C)CC3)c(F)cc3c(=O)c(C(=O)O)cn1c23.C[C@H]1COc2c(N3CCN(C)CC3)c(F)cc3c(=O)c(C(=O)O)cn1c23.O` [levofloxacin, reference compound], in data set [15] (12 strains), the “E. coli MIC range” value lay within 0.015 to 32 µg/mL. Besides, the “A. baumannii MIC range” value in data set [14] (12 strains) is 0.06 to 64 µg/mL.
For `CN(C)c1cc(NC(=O)CNC(C)(C)C)c(O)c2c1C[C@H]1C[C@H]3[C@H](N(C)C)C(O)=C(C(N)=O)C(=O)[C@@]3(O)C(O)=C1C2=O` [tigecycline, reference compound], the “MIC K. pneu^WT” value in [1] was 0.13 µg/mL (≈ 0.222 µM). The “MIC A. bau^WT” value in [2] came out at 0.78 µg/mL (≈ 1.33 µM). Also, the “MIC A. bau^R” value in data set [3] is 0.78 µg/mL (≈ 1.33 µM). Also, the “MIC E. coli^WT” value in [4] was found to be 0.13 µg/mL (≈ 0.222 µM). In data set [5], the “MIC E. coli^R1” value was 0.25 µg/mL (≈ 0.427 µM).
